{"source": "paper PMC6969523", "about": "“Corazonin signaling integrates energy homeostasis and lunar phase to regulate aspects of growth and sexual maturation in Platynereis” (Proceedings of the National Academy of Sciences of the …, 2019)", "key": {"[1]": {"target": "T1, GnRHR1/AKHR1 (Platynereis dumerilii, UniProt A0A6B9MSD4)", "T1 sequence (A0A6B9MSD4 1-359)": "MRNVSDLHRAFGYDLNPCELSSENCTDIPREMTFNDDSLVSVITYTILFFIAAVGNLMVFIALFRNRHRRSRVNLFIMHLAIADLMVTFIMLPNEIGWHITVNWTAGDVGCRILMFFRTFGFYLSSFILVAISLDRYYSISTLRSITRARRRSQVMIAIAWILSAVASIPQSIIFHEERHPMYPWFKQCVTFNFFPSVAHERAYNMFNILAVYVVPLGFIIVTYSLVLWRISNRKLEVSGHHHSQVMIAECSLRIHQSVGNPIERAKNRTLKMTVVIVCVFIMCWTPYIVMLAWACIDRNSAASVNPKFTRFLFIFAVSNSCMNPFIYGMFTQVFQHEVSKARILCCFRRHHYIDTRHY", "assay": "Calcium mobilization (deorphanization) assay, GnRHR1/AKHR1", "assay_type": "cell-based", "from_the_text": "(§1) We next took advantage of a cell culture-based calcium mobilization assay ([59]) for assessing the ligand–receptor interactions of these receptors. […] Given that a receptor for GnRHL3 was still missing, we tested ligand–receptor interactions of all identified Platynereis GnRH-like receptors. […] As we presently cannot exclude the existence of an additional GnRH-like receptor in Platynereis that might be activated by GnRHL3 at lower concentrations, we here use the more generic name (GnRHL3) for this ligand.\n(§2) CrzRb was identified and initially deorphanized in ref. [54]. GnRHR1/AKHR1 and GnRHR2/AKHR2, as well as the second isoform of CrzR (CrzRa) were identified using an in silico approach and confirmed by cloning and sequencing. To facilitate deorphanization, cDNA of these receptors was amplified from laboratory Platynereis strains and cloned into the pcDNA3.1 (+) vector. […] Receptor activation was measured by monitoring calcium responses for 30 s on a Mithras LB 940 luminometer (Berthold Technologies). Percentage activation values of receptors were plotted for each receptor, and half maximal effective concentrations (EC50 value) were calculated using a computerized nonlinear regression analysis with a sigmoidal dose–response equation (GraphPad PRISM software). […]"}, "[2]": {"target": "T2, GnRHR2/AKHR2 (Platynereis dumerilii, UniProt A0A6B9MRA0)", "T2 sequence (A0A6B9MRA0 1-355)": "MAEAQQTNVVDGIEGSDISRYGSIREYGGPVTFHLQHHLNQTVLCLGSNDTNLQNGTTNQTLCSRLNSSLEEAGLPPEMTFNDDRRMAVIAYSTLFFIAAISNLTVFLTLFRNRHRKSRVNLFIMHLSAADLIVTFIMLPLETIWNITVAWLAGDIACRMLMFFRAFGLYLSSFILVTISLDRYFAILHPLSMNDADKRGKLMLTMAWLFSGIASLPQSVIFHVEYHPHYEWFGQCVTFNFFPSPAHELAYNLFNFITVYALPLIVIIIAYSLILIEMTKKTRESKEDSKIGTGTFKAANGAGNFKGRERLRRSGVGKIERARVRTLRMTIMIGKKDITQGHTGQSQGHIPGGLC", "assay": "Calcium mobilization (deorphanization) assay, GnRHR2/AKHR2", "assay_type": "cell-based", "from_the_text": "as §1, §2"}, "[3]": {"tested_on": "GnRH-superfamily receptors", "assay": "Activation of GnRH-superfamily receptors in vitro", "assay_type": "cell-based, Platynereis dumerilii", "from_the_text": "as §1, §2"}, "[4]": {"tested_on": "honeybee larvae", "conditions": "fed with swainsonine; ref SI 20; cited from earlier work", "from_the_text": "Cons e que nce s of lys os oma l α-ma n n o si d as e im p a i r me n t s i n o t h e r s pe ci es One of the molecular consequences of knocking out the Platynereis crz1/gnrhl1 gene that we reveal in this study is the strong reduction of lysosomal α-mannosidase. In huma ..."}, "[5]": {"target": "CrzR", "assay": "Ligand-receptor interaction, Corazonin receptor (isoform not given)", "assay_type": "cell-based, Platynereis dumerilii", "from_the_text": "as §1, §2"}, "[6]": {"target": "T3, CrzRa (Platynereis dumerilii, UniProt A0A6B9MK47)", "T3 sequence (A0A6B9MK47 1-288)": "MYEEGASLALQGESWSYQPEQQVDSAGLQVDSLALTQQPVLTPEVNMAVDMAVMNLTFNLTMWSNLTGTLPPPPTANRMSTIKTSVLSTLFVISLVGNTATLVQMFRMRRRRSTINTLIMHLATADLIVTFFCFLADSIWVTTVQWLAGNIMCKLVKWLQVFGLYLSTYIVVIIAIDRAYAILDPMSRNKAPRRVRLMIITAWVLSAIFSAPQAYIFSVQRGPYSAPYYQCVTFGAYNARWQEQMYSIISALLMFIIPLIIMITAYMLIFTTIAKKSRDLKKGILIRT", "assay": "Calcium mobilization (deorphanization) assay, CrzRa", "assay_type": "cell-based", "from_the_text": "as §1, §2"}, "[7]": {"target": "T4, CrzRb (Platynereis dumerilii, UniProt A0A291FE86)", "T4 sequence (A0A291FE86 1-422)": "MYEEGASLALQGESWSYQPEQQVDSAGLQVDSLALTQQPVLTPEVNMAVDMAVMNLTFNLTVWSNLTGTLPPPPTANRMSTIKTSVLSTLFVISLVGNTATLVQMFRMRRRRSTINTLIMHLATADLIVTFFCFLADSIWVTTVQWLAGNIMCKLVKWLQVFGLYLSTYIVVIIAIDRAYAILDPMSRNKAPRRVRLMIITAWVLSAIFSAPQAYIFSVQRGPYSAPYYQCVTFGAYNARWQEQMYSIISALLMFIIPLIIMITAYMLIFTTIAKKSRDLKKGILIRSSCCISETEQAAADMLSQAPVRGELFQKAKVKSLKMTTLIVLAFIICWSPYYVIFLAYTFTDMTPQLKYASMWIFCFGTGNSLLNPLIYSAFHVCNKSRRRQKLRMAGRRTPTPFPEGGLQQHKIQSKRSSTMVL", "assay": "Calcium mobilization (deorphanization) assay, CrzRb", "assay_type": "cell-based", "from_the_text": "as §1, §2"}, "[8]": {"tested_on": "glucose production", "conditions": "vertebrate glucagon; glycogenolysis and gluconeogenesis; ref [38], [66], [77]–[79]; cited from earlier work", "from_the_text": "The focus on the metabolic consequences of CRZ/GnRHL provides an interesting perspective for the cross-comparison of corazonin signaling with other signaling systems. The proposed role of worm CRZ1 in promoting the expression of α-glucosidases and pepck is reminiscent of the action of the GnRH-like AKH peptide in flies but also the role of vertebrate glucagon, an independent factor that has been discussed as a functional analog of insect AKH signaling ([38], [66], [77]–[79]). […] Thus, CRZ1/GnRHL1 see ..."}, "[9]": {"tested_on": "female mice", "conditions": "female mice injected with leptin; ref [50]–[52]; cited from earlier work", "from_the_text": "In turn, strong interconnections between the GnRH system and metabolism can also be found in several vertebrates. […] In mammals, GnRH release is also regulated by the orexigenic neuropeptide Y (NPY) and kisspeptin, which relays both sex steroid and leptin signaling to GnRH neurons ([49]). In line with this, a high-fat diet increases hypothalamic gnrh expression in prepubescent gilts ([50]), where this treatm ..."}, "[10]": {"conditions": "CHO cells stably expressing apo-aequorin and human Gα16, transient transfection, calcium response 30 s, luminometer, nonlinear regression, at least 4 replicates in at least 2 independent experiments"}, "[11]": {"conditions": "CHO cells, all receptors tested with all ligands"}, "[12]": {"conditions": "CHO cells, all receptor-ligand combinations tested, GnRHL3 at higher concentration (sub-micromolar to micromolar range)"}}, "note": "“Also recorded” adds a separate entry of the source. Non-standard residues stand in square brackets, D forms with d. Residues, ends and D or L forms follow the SMILES beside them. pGlu = O=C1CC[C@@H](C(=O)O)N1", "data": [{"molecule": "CC(C)C[C@H](NC(=O)[C@H](CO)NC(=O)[C@H](CCC(N)=O)NC(=O)[C@@H](NC(=O)[C@H](CC(C)C)NC(=O)[C@@H]1CCC(=O)N1)[C@@H](C)O)C(=O)NCC(=O)N[C@@H](Cc1c[nH]c2ccccc12)C(=O)NCC(=O)N[C@@H](CO)C(=O)N[C@@H](C)C(=O)NCC(=O)N[C@@H](CO)C(=O)N[C@@H](CO)C(N)=O", "note": "[GnRH2/GnRHL4] ([pGlu]LTQSLGWGSAGSS-NH2)", "values": [{"measurement": "EC50", "setting": "[1]; [10]", "result": 11.5, "unit": "nM"}, {"measurement": "activation of GnRHR1/AKHR1", "setting": "[1]; [11]", "result": "specifically activated; also recorded: respond only to a single ligand"}, {"measurement": "EC50", "setting": "[2]; [10]", "result": 200, "unit": "nM"}, {"measurement": "activation of GnRHR2/AKHR2", "setting": "[2]; [11]", "result": "specifically activated; also recorded: respond only to a single ligand"}, {"measurement": "activation of GnRH-superfamily receptors in vitro", "setting": "[3]", "result": "activate GnRH-superfamily receptors in vitro"}]}, {"molecule": "O[C@H]1[C@H]2[C@H](O)CCCN2C[C@H]1O", "note": "[swainsonine]", "values": [{"measurement": "development of honeybee larvae", "setting": "[4]", "result": "developmental delay in pupal metamorphosis"}]}, {"molecule": "CC(C)C[C@H](NC(=O)[C@H](CO)NC(=O)[C@H](Cc1ccccc1)NC(=O)[C@H](CO)NC(=O)[C@H](Cc1ccccc1)NC(=O)[C@@H]1CCC(=O)N1)C(=O)N1CCC[C@H]1C(=O)NCC(=O)N[C@@H](CCCCN)C(=O)N[C@@H](Cc1c[nH]c2ccccc12)C(=O)NCC(=O)N[C@@H](CC(N)=O)C(N)=O", "note": "[GnRHL3] ([pGlu]FSFSLPGKWGN-NH2)", "values": [{"measurement": "EC50 levels for CrzR activation compared with the other CRZ ligands", "setting": "[5]; GnRHL3-CrzR activation assay versus other CRZ ligands", "result": "significantly higher"}, {"measurement": "activation of CrzR", "setting": "[5]; ligand-receptor interaction analyses, isoform not stated", "result": "activated"}, {"measurement": "EC50", "setting": "[6]; [10]", "result": 500, "unit": "nM"}, {"measurement": "activation of CrzRa", "setting": "[6]; [12]", "result": "also respond; also recorded: at higher concentration"}, {"measurement": "EC50", "setting": "[7]; [10]", "result": 5.8, "unit": "µM"}, {"measurement": "activation of CrzRb", "setting": "[7]; [12]", "result": "also respond; also recorded: at higher concentration"}, {"measurement": "activation of GnRH-superfamily receptors in vitro", "setting": "[3]", "result": "activate GnRH-superfamily receptors in vitro"}]}, {"molecule": "glucagon", "values": [{"measurement": "glucose production", "setting": "[8]", "result": "increased glucose production"}]}, {"molecule": "leptin: leptin, injected in female mice (protein, UniProt P41160 22-167, looked up) Leptin: VPIQKVQDDTKTLIKTIVTRINDISHTQSVSAKQRVTGLDFIPGLHPILSLSKMDQTLAVYQQVLTSLPSQNVLQIANDLENLRDLLHLLAFSKSCSLPQTSGLQKPESLDGVLEASLYSTEVVALSRLQGSLQDILQQLDVSPEC", "values": [{"measurement": "puberty onset", "setting": "[9]", "result": "advances puberty onset"}]}]}
